# From patent US8404646B2, “Methods for preventing or treating mitochondrial permeability transition” (Cornell Research Foundation, Inc., priority 2003, dated 2013)
# “Also recorded” adds a separate entry of the source.
# What was measured:
# isolated mitochondria [1] = assay: Cytochrome c release from isolated mitochondria (ELISA); assay type: biochemical, mouse; details: Ca2+ overload
# Method: (§1) MPT pore opening results in mitochondrial swelling. We examined the effects of [Dmt^1]DALDA on mitochondrial swelling by measuring reduction in absorbance at 540 nm (A540). The mitochondrial suspension was then centrifuged and cytochrome c in the mitochondrial pellet and supernatant determined by a commercially-available ELISA kit.
# (§2) The methods for study are as described above for SS-02. In this example, mitochondrial swelling was measured using light scattering monitored at 570 nm.
# [2] = test system: isolated perfused guinea pig heart; assay: Ischemia-reperfusion myocardial stunning in isolated perfused heart (Langendorff); details: 100 nM, 30 min global ischemia
# Method: Guinea pig hearts were rapidly isolated, and the aorta was cannulated in situ and perfused in a retrograde fashion with an oxygenated Krebs-Henseleit solution (pH 7.4) at 34° C. The heart was then excised, mounted on a modified Langendorff perfusion apparatus, and perfused at constant pressure (40 cm H2O). Contractile force was measured with a small hook inserted into the apex of the left ventricle and the silk ligature tightly connected to a force-displacement transducer. Coronary flow was measured by timed collection of pulmonary artery effluent.
# Reperfusion was carried out with the same solution used prior to ischemia.
# [3] = test system: several mammalian cell types; details: energy-independent manner; cited from earlier work
# [4] = test system: isolated guinea pig hearts; assay: Organ preservation: peptide in cardioplegic solution, prolonged ischemia of isolated heart; details: in St. Thomas cardioplegic solution 3 min, 90 min ischemia, 60 min reperfusion; listed as [Dmt^1]DALDA
# Method: We examined whether [Dmt^1]DALDA prolongs survival of organs. In this study, [Dmt^1]DALDA was added to a commonly used cardioplegic solution (St. Thomas) to determine whether [[Dmt^1]DALDA enhances survival of the heart after prolonged ischemia (model of ex vivo organ survival).
# Isolated guinea pig hearts were perfused in a retrograde fashion with an oxygenated Krebs-Henseleit solution at 34° C. After 30 min. of stabilization, the hearts were perfused with a cardioplegic solution CPS (St. Tohomas) with or without [Dmt^1]DALDA at 100 nM for 3 min. Global ischemia was then induced by complete interruption of coronary perfusion for 90 min. Reperfusion was subsequently carried out for 60 min. with oxygenated Krebs-Henseleit solution. Contractile force, heart rate and coronary flow were monitored continuously throughout the experiment.
# HEK293 = assay: Cellular uptake of [3H][Dmt1]DALDA, confirmation; assay type: cell-based, human
# Method: (§3) The cellular uptake of [^3H][Dmt^1]DALDA was studied using a human intestinal epithelial cell line (Caco-2), and confirmed with SH-SY5Y (human neuroblastoma cell), HEK293 (human embryonic kidney cell) and CRFK cells (kidney epithelial cell). Monolayers of cells were grown on 12-well plates (5×10^5 cells/well) coated with collagen for 3 days. On day 4, cells were washed twice with pre-wanned HBSS, and then incubated with 0.2 ml of HBSS containing either 250 nM [^3H][Dmt^1]DALDA at 37° C. or 4° C. for various times up to 1 h.
# SH-SY5Y = assay: Cellular uptake of [3H][Dmt1]DALDA, confirmation; assay type: cell-based, human
# Method: as §3
# [5] = test system: mitochondrial permeability transition (MPT) in isolated mitochondria; assay: Mitochondrial membrane potential and MPT measured with TMRM; assay type: biochemical, mouse; details: for mitochondrial potential / MPT on addition of peptide alone: 200 μM, TMRM; for tolerance of mitochondria to cumulative Ca2+ additions prior to MPT: 50 and 100 μM
# Method: In addition to having no direct effect on mitochondrial potential, [Dmt^1]DALDA was able to protect against MPT induced by Ca^2+ overload.
# 3-Nitropropionic acid (3NP) is an irreversible inhibitor of succinate dehydrogenase in complex II of the electron transport chain. Addition of 3NP (1 mM) to isolated mitochondria caused dissipation of mitochondrial potential and onset of MPT (FIG. 2C).
# isolated mitochondria [6] = assay: Mitochondrial swelling (absorbance 540 nm or light scattering 570 nm); assay type: biochemical, mouse
# Method: as §1, §2
# Caco-2 = assay: Cellular uptake of [3H][Dmt1]DALDA into cell monolayers; assay type: cell-based, human
# Method: as §3
# In a separate experiment, cells were incubated with a range of [Dmt^1]DALDA concentrations (1 μM-3 mM) for 1 h at 37° C. At the end of the incubation period, cells were washed 4 times with HBSS, and 0.2 ml of 0.1N NaOH with 1% SDS was added to each well. The cell contents were then transferred to scintillation vials and radioactivity counted. To distinguish between internalized radioactivity from surface-associated radioactivity, an acid-wash step was included. Prior to cell lysis, cells were incubated with 0.2 ml of 0.2 M acetic acid/0.05 M NaCl for 5 min on ice.
# CRFK cells = assay: Cellular uptake of [3H][Dmt1]DALDA, confirmation; assay type: cell-based
# Method: as §3
# Caco-2 cells = assay: 3NP-induced mitochondrial depolarization in cells (TMRM, LSCM); assay type: cell-based, human; details: 3NP 10 mM, peptide 0.1 μM, 4 h
# Excerpt: In control cells, the mitochondria are clearly visualized as fine streaks throughout the cytoplasm.
# [7] = Estimated concentration in isolated perfused guinea pig hearts; details: coronary perfusate 0.1 μM
# [8] = test system: isolated mouse liver mitochondria; assay: Mitochondrial respiration (oxygen consumption); assay type: biochemical; details: 100 μM
# [9] = test system: isolated mouse liver mitochondria; assay: Uptake into isolated mitochondria (fluorescence quenching, radioactivity in pellet); assay type: in vitro ADME
# Method: (FIG. 1A) Mitochondrial uptake of SS-19 was determined using fluorescence spectrophotometry (ex/em=320/420 nm). […] Pretreatment of mitochondria with FCCP (1.5 μM) reduced quenching by <20% (black line). […] Uptake was stopped by centrifugation (16000×g) for 5 min at 4° C., and radioactivity determined in the pellet. […] Data are shown as mean±s.e.; n=3. *, P<0.05 by Student's t-test. […] Black line, TMRM; red line, SS-19.
# To isolate mitochondria from mouse liver, mice were sacrificed by decapitation. The liver was removed and rapidly placed into chilled liver homogenization medium. The liver was finely minced using scissors and then homogenized by hand using a glass homogenizer.
# The homogenate was centrifuged for 10 min at 1000×g at 4° C. The supernatant was aspirated and transferred to polycarbonate tubes and centrifuged again for 10 min. at 3000×g, 4° C. The resulting supernatant was removed, and the fatty lipids on the side-wall of the tube were carefully wiped off.
# The pellet was resuspended in liver homogenate medium and the homogenization repeated twice. The final purified mitochondrial pellet was resuspended in medium. Protein concentration in the mitochondrial preparation was determined by the Bradford procedure.
# Approximately 1.5 mg mitochondria in 400 μl buffer was incubated with [^3H][Dmt^1]DALDA for 5-30 min at 37° C. The mitochondria were then centrifuged down and the amount of radioactivity determined in the mitochondrial fraction and buffer fraction. […] Thus [Dmt^1]DALDA is concentrated in mitochondria.
# Thus uptake of [Dmt^1, AtnDap^4]DALDA was not potential-dependent.
# To confirm that the mitochondrial targeting was not an artifact of the fluorophore, we also examined mitochondrial uptake of [^3H][Dmt^1]DALDA. Isolated mitochondria were incubated with [^3H][Dmt^1]DALDA and radioactivity determined in the mitochondrial pellet and supernatant.
# We next examined the effect of mitochondrial swelling on the accumulation of [Dmt^1, AtnDap^4]DALDA in mitochondria by using alamethicin to induce swelling and rupture of the outer membrane. […] Thus, [Dmt^1]DALDA is associated with mitochondrial membranes.
substance,measurement,setting,value
"2′,6′-dimethyltyrosine-D-Arg-Phe-Lys-NH2 [SS-02]",Ca2+-induced release of cytochrome c,isolated mitochondria [1],inhibited
same,myocardial contractile force during ischemia-reperfusion,[2],tolerated ischemia much better than buffer-treated hearts; also recorded: protects myocardial contractile force
same,penetration of the plasma membrane,[3],readily penetrates the plasma membrane
same,contractile function after prolonged ischemia,[4],significantly enhanced; also recorded: significantly improved
same,internalization,HEK293,observed
same,internalization,SH-SY5Y,observed
same,mitochondrial potential / MPT on addition of peptide alone,[5],did not alter mitochondrial potential
same,mitochondrial potential / MPT on addition of peptide alone,[5]; listed as [Dmt^1]DALDA,did not cause mitochondrial depolarization or MPT
same,onset of MPT induced by 3NP,"[5]; 1 mM 3NP, 0.5, 5, 50 μM peptide",dose-dependently delayed
same,tolerance of mitochondria to cumulative Ca2+ additions prior to MPT,[5],increased mitochondrial tolerance
same,tolerance of mitochondria to cumulative Ca2+ additions prior to MPT,[5]; listed as [Dmt^1]DALDA,dose-dependently increased
same,MPT induced by Ca2+ overload,[5]; pretreatment 10 μM,prevented onset of MPT
same,mitochondrial swelling induced by Ca2+,"isolated mitochondria [6]; 200 μM Ca2+, absorbance at 540 nm",inhibited swelling; also recorded: dose dependently inhibited
same,mitochondrial swelling induced by MPP+,isolated mitochondria [6]; MPP+ 300 μM,prevented mitochondrial swelling; also recorded: inhibited mitochondrial swelling
same,time at which [3H][Dmt1]DALDA was first observed in cell lysate,"Caco-2; 250 nM, Caco-2",5 min
same,time to steady state levels in cell lysate,"Caco-2; 250 nM, Caco-2",≤ 30 min
same,"total amount recovered in the cell lysate, of the total drug",Caco-2; after 1 h incubation,about 1%
same,uptake at 4° C. compared to 37° C.,Caco-2; by 45 min,76.5%
same,uptake at 4° C. compared to 37° C.,Caco-2; by 1 h,86.3%
same,internalization,CRFK cells,observed
same,mitochondrial depolarization caused by 3NP in cells,Caco-2 cells,protected against mitochondrial depolarization
same,Concentration of [Dmt1]DALDA in mitochondria,[7],1000 µM
same,Concentration of [Dmt1]DALDA in myocyte,[7],5 µM
same,oxygen consumption during state 3 or state 4,[8],did not alter
same,decrease of radioactivity associated with mitochondrial pellet by FCCP,"[9]; 37° C., 2 min",~20%
same,amount of radioactivity in the pellet over time,[9]; from 2 min to 8 min,did not change
